Data from patent US20160137714A1 (Thrasos Innovation, Inc., priority 2014, published 2016).
Entries after “also recorded” stand apart in the source; their conditions may differ. No end group written: not given here.

What was measured:
[1] = tested on: Adriamycin (ADR)-induced proteinuria; assay: Adriamycin (ADR)-induced nephropathy model; assay type: in vivo; details: rat
Excerpt: Adriamycine (doxorubicin) is a drug used in chemotherapy. It is known to cause undesirable renal toxicitiy in rat, mainly glomerular damage (via podocyte injury/loss), resulting in proteinuric neophrapthy (Hakroush et al., 2014, J. Am. Soc. Nephrology, 25:927-38), and it is the prototypical model of human primary focal and segmental glomerulosclerosis. ADR-induced mephropathy, in mouse or rat, is a robust in vivo model of proteinuria that can easily and directly be measured in urine, thus allowing for monitoring of disease progression in living animals. It is induced by a single intravenous injection of ADR.
Male CD rats (aged 8 weeks) were acclimatized in the facility for at least 5 days. On Day 0, rats received Adriamycin at a dose level of 7.5 mg/kg by tail vein administration at a dose volume of 5 mL/kg. If needed, an abbocath was used for administration. The abbocath will be flushed with 0.5 mL of 0.9% saline after Adriamycin injection. […]
Once pretreatment and on pre-determined days (e.g. days 5, 10, 15, 20) blood samples (0.7 mL) was collected from the jugular vein in SST tubes and analyzed for serum creatinine and BUN. Once pretreatment and on pre-determined days (e.g. days 5, 10, 15, 20) urine samples were collected overnight from individually housed animals. After collection, serum and urine samples were processed and analyzed for creatinine (serum & urine), BUN (serum) and total protein (urine). […] The time the animals are placed in urine collection cages and time of sample collection was recorded. […]
Once pretreatment and on Day 21, blood samples (0.7 mL) were collected from the jugular vein in SST tubes and analyzed for serum creatinine and BUN. Once pretreatment and on pre-determined days (Days 5, 10, 15, 21) urine samples were collected overnight from individually housed animals. After collection, serum and urine samples were processed and analyzed for creatinine (serum & urine), BUN (serum) and total protein (urine). […] The time the animals are placed in urine collection cages and time of sample collection was recorded. […]

[2] = rat kidney tissue 10 minutes post IV administration; details: up to 10 minutes
[3] = plasma after s.c. administration of 1 mg/kg Compound III; after IV administration
[4] = fresh mouse or rat plasma; details: 37° C., up to 120 min (Table 6; protocol lists up to 1440)
[5] = FIGURE 31 (2/2)
Method: Table printed on a drawing sheet, FIGURE 31 (2/2)
Peptide to internal standard peak area ratios were used calculate percentage remaining peptide at 60 minutes and 120 minutes. Peptides are identified by GPR number (GPR#) and SEQ ID NO.
First reader's note: Second part (2/2) of Figure 31, continued from the previous sheet; in the last row (GPR 478) the empty N-Terminal cell is merged with position 1.

In the case of CCOC(=O)[C@H](CCc1ccccc1)N[C@@H](C)C(=O)N1CCC[C@H]1C(=O)O [Enalapril], the “ADR-induced renal lesions in H&E-stained kidney sections” value ([1]; 21 days post ADR, treated daily, glomerular hypertrophy, protein casts, tubular dilation, neutrophils) is reported as “absent or reduced in number”, the “effect on ADR-induced proteinuria (urine protein to urine creatinine)” value ([1]; ADR 7.5 mg/kg, daily for 21 days, GPR-405 300 nmol/kg sc, enalapril 50 mg/kg po) is reported as “efficacious” and the “effect on serum creatinine (sCr) and blood urea nitrogen (BUN)” value ([1]; following Adriamycin treatment, GPR-405 300 nmol/kg sc, enalapril 50 mg/kg po, FIG. 24) is reported as “Neither enalapril nor GPR-405 had any marked effect”.
For “CYFDDSSNVLCKKYRS (cysteine pairing not given here)”, the cleaved bond [2] was “Y14-R15, major, 10 minutes” and the fragment found [2] was “VI (GPR-263) Cys-Tyr-Phe-Asp-Asp-Ser-Ser-Asn-Val-Leu-Cys, 10 minutes; also recorded: VIII (GPR-262) Cys-Tyr-Phe-Asp-Asp-Ser-Ser-Asn-Val-Leu-Cys-Lys, 10 minutes; also recorded: IX (GPR-261) Cys-Tyr-Phe-Asp-Asp-Ser-Ser-Asn-Val-Leu-Cys-Lys-Lys, 10 minutes”.
With “Cys-Tyr-Phe-Asp-Asp-Ser-Ser-Asn-Val-Leu-Cys-Lys-Lys-D-tyr-Arg-Ser” the not cleaved [3] was “prevented the proteolytic cleavage between the amino acids 14 and 15”.
For “Cys-Tyr-Tyr-Asp-Asp-Ser-Ser-Ser-Val-Leu-Cys-Lys-Lys-D-tyr-Arg-Ser”, the not cleaved [4] was 94.7 percent remaining at 120 min.
With “Y Y F S S S F V L C K R y* R S [478 | 68]” the “% Remaining at 60 and 120 minutes | 60” value [5] was 87.7% and the “% Remaining at 60 and 120 minutes | 120” value [5] was 78.9%.
